Source: US12264146B2, “Rho kinase inhibitor, method for preparing same and uses thereof” (BEIJING INCREASE INNOVATIVE DRUG CO., LTD., priority 2018, dated 2025)

Key:
[1] = system: subarachnoid hemorrhage in rats; assay: Rat subarachnoid hemorrhage (SAH) model by intravascular puncture, Sugawara bleeding score; type: in vivo; set-up: dose or concentration left out as unconfirmed; conditions: tail vein injection, 2 administrations 4 h apart, scored 24 h after first administration (Sugawara)
Experimental: Rat subarachnoid hemorrhage (SAH) model was built by intravascular puncture. After being weighed, the rats were anesthetized with sodium pentobarbital (50 mg/kg) or chloral hydrate (300 mg/kg) by intraperitoneal injection, then fixed on their back and maintained the animal's body temperature at about 37° C. The rats' neck skin was shaved for surgery, a median incision was made on the neck, and muscle and fascia were separated along the inner edge of stemocleidomastoid muscle to expose the main and bifurcation of right common carotid artery, and expose the external and internal carotid arteries.
The bifurcation of internal carotid artery was gently clamped with ophthalmic forceps, the bifurcation of the internal carotid artery and the external carotid artery was pierced with a 6-gauge syringe needle, the ophthalmic forceps holding the bifurcation of internal carotid artery was slightly loosen, and No. 3 fishing thread was used to perform a puncture at the bleeding point, the ophthalmic forceps on the internal carotid artery was loosen, and the fishing thread was inserted into skull. […] After staying for 15 seconds, the thread for puncture was completely removed, and the skin was sutured after compression to stop the bleeding. 1.6 million units of penicillin potassium (400,000 units/ml, 0.2 ml/rat) was intramuscularly injected to avoid wound infection. For the sham operation group, the thread for puncture was removed when resistance was felt without piercing the bifurcation of the anterior cerebral artery and the middle cerebral artery, while the remaining operation steps were the same as the model group. After the operation, the rats were transferred to a thermal insulation blanket, then transferred to a squirrel cage when they were basically awake, and kept normally.
In this test experimental, 32 groups were set, i.e., Groups 1 to 32, in which Group 1 was a normal control group (healthy rats), Group 2 was a sham operation control group (not modeling by puncture), Group 3 was a model control group (modeling by puncture, administrated with normal saline), Group 4 was a positive control group (modeling by puncture, administrated with fasudil hydrochloride injection), and Groups 5 to 32 were test groups of the compounds of the present application (modeling by puncture, respectively administrated with the compounds of the present application); and there were 8 animals (purchased from SPF (Beijing) Biotechnology Co., Ltd., the certificate number was SYXK (Beijing) 2016-0002) in each group, half of them were female and half of them were male. The animals were subjected to fasting for 12 to 18 hours without prohibition of drinking water before modeling. […] The rats were euthanized 24 h after the first administration, and the brains were taken. According to Sugawara's method (Reference: Sugawara T, Ayer R, Jadhav V, et al. A new grading system evaluating bleeding scale in filament perforation subarachnoid hemorrhage rat model. J Neurosci Methods. 2008, 167(2):327-34), the subarachnoid hemorrhage amounts were scored, and the scoring results were as follows: […]

[2] = system: endothelin (ET-1); assay: Expression of endothelin (ET-1) in EA.Hy926 endothelial cells, detection kit; type: cell-based, human; conditions: EA.Hy926 cell supernatant, 48 h
Experimental: (§1) Commercially available cytokine kits were used to detect the effects of the compounds of the present application on vascular endothelium-derived contracting factor endothelin, vascular endothelium-derived relaxing factor endothelial nitric oxide synthase, nitric oxide, and prostacyclin factor. The detection was performed according to the kit instructions. When testing the effect of the compound of the present application on cytokines, a normal control group, a fasudil hydrochloride group, and high-, medium- and low-dose groups of the compounds of the present application were set up for testing. The fasudil hydrochloride used in this test example was purchased from Beijing Sihuan Pharmaceutical Co., Ltd., with the SFDA approval number of H20173349. The EA.Hy926 cells used in this test example were purchased from Suzhou Beina Chuanglian Biotechnology Co., Ltd.
EA.Hy926 cells were taken and inoculated in a 96-well plate at 5×10^4 cells/mL, 100 μL per well, and cultured adherently for 24 hours, then the test compound prepared in DMEM medium was added, and an equal volume of DMEM medium was added in the normal control group, then the cells were cultured at 37° C. for 48 hours, and then the cell supernatant was taken and placed in an EP tube, and centrifuged at 3000 r/min, 4° C. for 15 min. The resulting cell supernatant was transferred to a new EP tube, diluted twice with culture medium, and detected according to the instruction of the human endothelin detection kit (purchased from Wuhan Boster Biological Engineering Co., Ltd., batch number 59113731009), and the detection results were shown in Table 2.

[3] = system: prostacyclin (PGI2); assay: Expression of prostacyclin (PGI2) in EA.Hy926 endothelial cells, ELISA kit; type: cell-based; conditions: EA.Hy926 cell supernatant, 24 h
Experimental: as §1
EA.Hy926 cells were taken and inoculated in a 96-well plate at 5×10^4 cells/mL, 100 μL per well, and cultured adherently for 24 hours, then the test compound prepared in DMEM medium was added, and an equal volume of DMEM medium was added in the normal control group, then the cells were cultured at 37° C. for 24 hours, and then the cell supernatant was taken and placed in an EP tube, and centrifuged for 15 min at 3000 r/min and 15° C. The resulting supernatant was transferred to a new EP tube, and then the detection was performed according to the instruction of ELISA kit (purchased from Wuhan Elabscience Biotechnology Co., Ltd., Cat. No. E-EL-0022c), and the detection results were shown in Table 3.

[4] = system: nitric oxide (NO); assay: Synthesis and secretion of nitric oxide (NO) in EA.Hy926 endothelial cells, NO detection kit; type: cell-based; conditions: EA.Hy926 cell supernatant, 24 h
Experimental: as §1
EA.Hy926 cells were inoculated in a 24-well plate at 5×10^5 cells/mL, 400 μL per well, and cultured adherently for 18 hours, then the supernatant was discarded, the test compound prepared in DMEM medium was added, and an equal volume of DMEM medium was added in the normal control group, then the cells was cultured for 24 h in incubator, and then the cell supernatant was collected and detected according to the instructions of NO detection kit (purchased from Beyotime Institute of Biotechnology, Cat. No. 062617171017), and the detection results were shown in Table 5.

COc1ncc(F)c2c(S(=O)(=O)N3CCCNC[C@H]3C)cccc12 [Compound R-YK1605, (R)-4-fluoro-1-methoxy-5-((2-methyl-1,4-diazacycloheptan-1-yl)sulfonyl)isoquinoline]
Cerebral hemorrhage volume score (x ± s) [1]: 12.95 ± 2.04 | expression of endothelin in endothelial cells: Detection result of test compound at low dose (0.4 μM) [2]: 231.61 ± 9.70 pg/mL | expression of endothelin in endothelial cells: Detection result of test compound at medium dose (2 μM) [2]: 228.98 ± 11.41 pg/mL | expression of endothelin in endothelial cells: Detection result of test compound at high dose (10 μM) [2]: 259.53 ± 0.75 pg/mL | expression of prostacyclin in endothelial cells: Detection result of test compound at low dose (0.4 μM) [3]: 280.07 ± 7.00 pg/mL | expression of prostacyclin in endothelial cells: Detection result of test compound at medium dose (2 μM) [3]: 274.72 ± 32.60 pg/mL | expression of prostacyclin in endothelial cells: Detection result of test compound at high dose (10 μM) [3]: 246.51 ± 1.44 pg/mL | nitric oxide secretion in endothelial cells: Detection result of test compound at low dose (0.4 μM) [4]: 0.950 ± 0.134 μm | nitric oxide secretion in endothelial cells: Detection result of test compound at medium dose (2 μM) [4]: 1.023 ± 0.006 μm | nitric oxide secretion in endothelial cells: Detection result of test compound at high dose (10 μM) [4]: 1.122 ± 0.006 μm

C[C@@H]1CNCCCN1S(=O)(=O)c1cccc2c(O)ncc(Cl)c12 [Compound R-YK1606, (R)-4-chloro-5-((2-methyl-1,4-diazacycloheptan-1-yl)sulfonyl)isoquinolin-1-ol]
Cerebral hemorrhage volume score (x ± s) [1]: 12.69 ± 2.01 | expression of endothelin in endothelial cells: Detection result of test compound at low dose (0.4 μM) [2]: 231.75 ± 32.51 pg/mL | expression of endothelin in endothelial cells: Detection result of test compound at medium dose (2 μM) [2]: 242.62 ± 19.81 pg/mL | expression of endothelin in endothelial cells: Detection result of test compound at high dose (10 μM) [2]: 231.03 ± 1.24 pg/mL | expression of prostacyclin in endothelial cells: Detection result of test compound at low dose (0.4 μM) [3]: 292.24 ± 2.59 pg/mL | expression of prostacyclin in endothelial cells: Detection result of test compound at medium dose (2 μM) [3]: 278.32 ± 46.42 pg/mL | expression of prostacyclin in endothelial cells: Detection result of test compound at high dose (10 μM) [3]: 258.58 ± 7.57 pg/mL | nitric oxide secretion in endothelial cells: Detection result of test compound at low dose (0.4 μM) [4]: 1.131 ± 0.019 μm | nitric oxide secretion in endothelial cells: Detection result of test compound at medium dose (2 μM) [4]: 1.009 ± 0.102 μm | nitric oxide secretion in endothelial cells: Detection result of test compound at high dose (10 μM) [4]: 1.158 ± 0.223 μm

CCc1cnc(O)c2cccc(S(=O)(=O)N3CCCNC[C@H]3C)c12 [Compound R-YK1607, (R)-4-ethyl-5-((2-methyl-1,4-diazacycloheptan-1-yl)sulfonyl)isoquinolin-1-ol]
Cerebral hemorrhage volume score (x ± s) [1]: 12.12 ± 2.06 | expression of endothelin in endothelial cells: Detection result of test compound at low dose (0.4 μM) [2]: 248.20 ± 2.28 pg/mL | expression of endothelin in endothelial cells: Detection result of test compound at medium dose (2 μM) [2]: 259.34 ± 7.96 pg/mL | expression of endothelin in endothelial cells: Detection result of test compound at high dose (10 μM) [2]: 237.68 ± 3.34 pg/mL | expression of prostacyclin in endothelial cells: Detection result of test compound at low dose (0.4 μM) [3]: 249.20 ± 2.28 pg/mL | expression of prostacyclin in endothelial cells: Detection result of test compound at medium dose (2 μM) [3]: 257.34 ± 7.96 pg/mL | expression of prostacyclin in endothelial cells: Detection result of test compound at high dose (10 μM) [3]: 241.68 ± 3.34 pg/mL | nitric oxide secretion in endothelial cells: Detection result of test compound at low dose (0.4 μM) [4]: 0.898 ± 0.006 μm | nitric oxide secretion in endothelial cells: Detection result of test compound at medium dose (2 μM) [4]: 0.924 ± 0.032 μm | nitric oxide secretion in endothelial cells: Detection result of test compound at high dose (10 μM) [4]: 1.010 ± 0.006 μm

O=S(=O)(c1cccc2cnccc12)N1CCCNC[C@H]1C1CC1 [Compound R-YK1608, (R)-5-((2-cyclopropyl-1,4-diazacycloheptan-1-yl)sulfonyl)isoquinoline]
Cerebral hemorrhage volume score (x ± s) [1]: 13.18 ± 1.97 | expression of endothelin in endothelial cells: Detection result of test compound at low dose (0.4 μM) [2]: 233.55 ± 0.12 pg/mL | expression of endothelin in endothelial cells: Detection result of test compound at medium dose (2 μM) [2]: 229.98 ± 11.41 pg/mL | expression of endothelin in endothelial cells: Detection result of test compound at high dose (10 μM) [2]: 239.23 ± 0.75 pg/mL | expression of prostacyclin in endothelial cells: Detection result of test compound at low dose (0.4 μM) [3]: 257.55 ± 4.12 pg/mL | expression of prostacyclin in endothelial cells: Detection result of test compound at medium dose (2 μM) [3]: 251.98 ± 10.41 pg/mL | expression of prostacyclin in endothelial cells: Detection result of test compound at high dose (10 μM) [3]: 242.23 ± 1.75 pg/mL | nitric oxide secretion in endothelial cells: Detection result of test compound at low dose (0.4 μM) [4]: 0.918 ± 0.008 μm | nitric oxide secretion in endothelial cells: Detection result of test compound at medium dose (2 μM) [4]: 0.984 ± 0.042 μm | nitric oxide secretion in endothelial cells: Detection result of test compound at high dose (10 μM) [4]: 1.105 ± 0.007 μm

CC(C)[C@@H]1CNCCCN1S(=O)(=O)c1cccc2c(O)nccc12 [Compound R-YK1609, (R)-5-((2-isopropyl-1,4-diazacycloheptan-1-yl)sulfonyl)isoquinolin-1-ol]
Cerebral hemorrhage volume score (x ± s) [1]: 12.27 ± 2.02 | expression of endothelin in endothelial cells: Detection result of test compound at low dose (0.4 μM) [2]: 222.75 ± 52.53 pg/mL | expression of endothelin in endothelial cells: Detection result of test compound at medium dose (2 μM) [2]: 232.72 ± 22.83 pg/mL | expression of endothelin in endothelial cells: Detection result of test compound at high dose (10 μM) [2]: 242.03 ± 1.24 pg/mL | expression of prostacyclin in endothelial cells: Detection result of test compound at low dose (0.4 μM) [3]: 259.20 ± 2.21 pg/mL | expression of prostacyclin in endothelial cells: Detection result of test compound at medium dose (2 μM) [3]: 260.34 ± 7.94 pg/mL | expression of prostacyclin in endothelial cells: Detection result of test compound at high dose (10 μM) [3]: 238.68 ± 3.34 pg/mL | nitric oxide secretion in endothelial cells: Detection result of test compound at low dose (0.4 μM) [4]: 0.978 ± 0.028 μm | nitric oxide secretion in endothelial cells: Detection result of test compound at medium dose (2 μM) [4]: 1.014 ± 0.051 μm | nitric oxide secretion in endothelial cells: Detection result of test compound at high dose (10 μM) [4]: 1.115 ± 0.006 μm

CC[C@@H]1CNCCCN1S(=O)(=O)c1cccc2c(OC)nccc12 [Compound R-YK1610, (R)-5-((2-ethyl-1,4-diazacycloheptan-1-yl)sulfonyl)-1-methoxyisoquinoline]
Cerebral hemorrhage volume score (x ± s) [1]: 12.83 ± 2.05 | expression of endothelin in endothelial cells: Detection result of test compound at low dose (0.4 μM) [2]: 259.20 ± 2.21 pg/mL | expression of endothelin in endothelial cells: Detection result of test compound at medium dose (2 μM) [2]: 260.34 ± 7.94 pg/mL | expression of endothelin in endothelial cells: Detection result of test compound at high dose (10 μM) [2]: 238.68 ± 3.34 pg/mL | expression of prostacyclin in endothelial cells: Detection result of test compound at low dose (0.4 μM) [3]: 275.40 ± 9.89 pg/mL | expression of prostacyclin in endothelial cells: Detection result of test compound at medium dose (2 μM) [3]: 267.35 ± 10.69 pg/mL | expression of prostacyclin in endothelial cells: Detection result of test compound at high dose (10 μM) [3]: 253.44 ± 12.48 pg/mL | nitric oxide secretion in endothelial cells: Detection result of test compound at low dose (0.4 μM) [4]: 0.997 ± 0.057 μm | nitric oxide secretion in endothelial cells: Detection result of test compound at medium dose (2 μM) [4]: 1.068 ± 0.032 μm | nitric oxide secretion in endothelial cells: Detection result of test compound at high dose (10 μM) [4]: 1.121 ± 0.006 μm
